From ChEMBL document CHEMBL1201862, “PubChem BioAssay data set” (2004)
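How tested: cells in 96-well plates exposed to compound for 48 hours at five concentrations. GI50: concentration for 50% inhibition of growth.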 Calls of active or inactive are those of the source. Cut-off read from the data, not from the text of the source: active = GI50 up to about 1.1 µM and inactive = higher.

Legend:
Assay in all cases: NCI anticancer screen, dose series, 48 h
A549 = tested on: A549
BT-549 = tested on: BT-549
HT-29 = tested on: HT-29
MOLT-4 = tested on: MOLT-4
SK-MEL-28 = tested on: SK-MEL-28
HL-60 = tested on: HL-60
UACC-62 = tested on: UACC-62
NCI-H226 = tested on: NCI-H226
K562 = tested on: K562
ACHN = tested on: ACHN
M14 = tested on: M14
COLO 205 = tested on: COLO 205
SF-539 = tested on: SF-539
MCF7 = tested on: MCF7
786-0 = tested on: 786-0
HCT-15 = tested on: HCT-15
TK-10 = tested on: TK-10
U-251 = tested on: U-251
OVCAR-8 = tested on: OVCAR-8
OVCAR-4 = tested on: OVCAR-4
SF-295 = tested on: SF-295
UACC-257 = tested on: UACC-257
OVCAR-3 = tested on: OVCAR-3
SK-OV-3 = tested on: SK-OV-3
HOP-62 = tested on: HOP-62
SK-MEL-5 = tested on: SK-MEL-5
NCI-H522 = tested on: NCI-H522
NCI/ADR-RES = tested on: NCI/ADR-RES
Malme-3M = tested on: Malme-3M
Hs-578T = tested on: Hs-578T
HCT-116 = tested on: HCT-116
SN12C = tested on: SN12C
SK-MEL-2 = tested on: SK-MEL-2
KM12 = tested on: KM12
SW-620 = tested on: SW-620
MDA-MB-435 = tested on: MDA-MB-435
DU-145 = tested on: DU-145
MDA-MB-231 = tested on: MDA-MB-231
PC-3 = tested on: PC-3
A498 = tested on: A498
IGROV-1 = tested on: IGROV-1
OVCAR-5 = tested on: OVCAR-5
HCC 2998 = tested on: HCC 2998
NCI-H23 = tested on: NCI-H23
HOP-92 = tested on: HOP-92
SF-268 = tested on: SF-268
UO-31 = tested on: UO-31
RXF 393 = tested on: RXF 393
MDA-N = tested on: MDA-N
CAKI-1 = tested on: CAKI-1
LOX IMVI = tested on: LOX IMVI
SNB-19 = tested on: SNB-19
CCRF-CEM = tested on: CCRF-CEM
EKVX = tested on: EKVX
NCI-H460 = tested on: NCI-H460
SR = tested on: SR
SNB-75 = tested on: SNB-75

CCC(=O)OCN1C(=O)C=CC1=O
GI50 (A549): 18.7 µM (inactive)
GI50 (BT-549): 18.5 µM (inactive)
GI50 (HT-29): 17.9 µM (inactive)
GI50 (MOLT-4): 2.3 µM (inactive)
GI50 (SK-MEL-28): 18.6 µM (inactive)
GI50 (HL-60): 7.19 µM (inactive)
GI50 (UACC-62): 17 µM (inactive)
GI50 (NCI-H226): 41.9 µM (inactive)
GI50 (K562): 3.26 µM (inactive)
GI50 (ACHN): 8.2 µM (inactive)
GI50 (M14): 18.3 µM (inactive)
GI50 (COLO 205): 4.28 µM (inactive)
GI50 (SF-539): 18.3 µM (inactive)
GI50 (MCF7): 20.1 µM (inactive)
GI50 (786-0): 5.38 µM (inactive)
GI50 (HCT-15): 22.9 µM
GI50 (TK-10): 6.21 µM (inactive)
GI50 (U-251): 17.6 µM (inactive)
GI50 (OVCAR-8): 18.3 µM (inactive)
GI50 (OVCAR-4): 17.6 µM (inactive)
GI50 (SF-295): > 44.7 µM (inactive)
GI50 (UACC-257): 9.06 µM (inactive)
GI50 (OVCAR-3): 7.16 µM (inactive)
GI50 (SK-OV-3): > 43.1 µM (inactive)
GI50 (HOP-62): 17.8 µM (inactive)
GI50 (SK-MEL-5): 27.5 µM (inactive)
GI50 (NCI-H522): 1.91 µM (inactive)
GI50 (NCI/ADR-RES): 24 µM (inactive)
GI50 (Malme-3M): 13.8 µM (inactive)
GI50 (Hs-578T): 10.1 µM (inactive)
GI50 (HCT-116): 16.2 µM (inactive)
GI50 (SN12C): 18.4 µM (inactive)
GI50 (SK-MEL-2): 15.7 µM (inactive)
GI50 (KM12): 16.7 µM (inactive)
GI50 (SW-620): 2.01 µM (inactive)
GI50 (MDA-MB-435): 15.2 µM (inactive)
GI50 (DU-145): 16.6 µM (inactive)
GI50 (MDA-MB-231): 18.7 µM (inactive)
GI50 (PC-3): 17.1 µM (inactive)
GI50 (A498): > 44.5 µM (inactive)
GI50 (IGROV-1): 18.4 µM (inactive)
GI50 (OVCAR-5): 18.2 µM (inactive)
GI50 (HCC 2998): 18.6 µM (inactive)
GI50 (NCI-H23): 18 µM (inactive)
GI50 (HOP-92): 15.2 µM (inactive)
GI50 (SF-268): 17.1 µM (inactive)
GI50 (UO-31): 7.91 µM (inactive)
GI50 (RXF 393): 16.2 µM (inactive)
GI50 (MDA-N): 16.9 µM (inactive)
GI50 (CAKI-1): 5.08 µM (inactive)
GI50 (LOX IMVI): 18.5 µM (inactive)
GI50 (SNB-19): 18.5 µM (inactive)
GI50 (CCRF-CEM): 0.445 µM (active)
GI50 (EKVX): 19.8 µM (inactive)
GI50 (NCI-H460): 18.6 µM (inactive)

NC1=NC(=O)[C@H](CSCc2ccccc2)N1C(=O)OCc1ccccc1
GI50 (BT-549): > 100 µM (inactive)
GI50 (HT-29): > 100 µM (inactive)
GI50 (MOLT-4): > 100 µM (inactive)
GI50 (HL-60): > 100 µM (inactive)
GI50 (UACC-62): > 100 µM (inactive)
GI50 (NCI-H226): > 100 µM (inactive)
GI50 (K562): > 100 µM (inactive)
GI50 (ACHN): > 100 µM (inactive)
GI50 (COLO 205): > 100 µM (inactive)
GI50 (SR): > 100 µM (inactive)
GI50 (MCF7): > 100 µM (inactive)
GI50 (786-0): > 100 µM (inactive)
GI50 (HCT-15): > 100 µM
GI50 (TK-10): > 100 µM (inactive)
GI50 (U-251): > 100 µM (inactive)
GI50 (OVCAR-8): > 100 µM (inactive)
GI50 (OVCAR-4): > 100 µM (inactive)
GI50 (SF-295): > 100 µM (inactive)
GI50 (UACC-257): > 100 µM (inactive)
GI50 (OVCAR-3): > 100 µM (inactive)
GI50 (HOP-62): > 100 µM (inactive)
GI50 (SK-MEL-5): > 100 µM (inactive)
GI50 (NCI-H522): > 100 µM (inactive)
GI50 (NCI/ADR-RES): > 100 µM (inactive)
GI50 (Malme-3M): > 100 µM (inactive)
GI50 (Hs-578T): > 100 µM (inactive)
GI50 (HCT-116): > 100 µM (inactive)
GI50 (SN12C): > 100 µM (inactive)
GI50 (SK-MEL-2): > 100 µM (inactive)
GI50 (KM12): > 100 µM (inactive)
GI50 (SW-620): > 100 µM (inactive)
GI50 (MDA-MB-435): > 100 µM (inactive)
GI50 (DU-145): > 100 µM (inactive)
GI50 (SNB-75): > 100 µM (inactive)
GI50 (MDA-MB-231): > 100 µM (inactive)
GI50 (PC-3): > 100 µM (inactive)
GI50 (A498): > 100 µM (inactive)
GI50 (IGROV-1): > 100 µM (inactive)
GI50 (OVCAR-5): > 100 µM (inactive)
GI50 (HCC 2998): > 100 µM (inactive)
GI50 (NCI-H23): > 100 µM (inactive)
GI50 (SF-268): > 100 µM (inactive)
GI50 (UO-31): > 100 µM (inactive)
GI50 (RXF 393): > 100 µM (inactive)
GI50 (MDA-N): > 100 µM (inactive)
GI50 (CAKI-1): > 100 µM (inactive)
GI50 (LOX IMVI): > 100 µM (inactive)
GI50 (SNB-19): > 100 µM (inactive)
GI50 (EKVX): > 100 µM (inactive)
GI50 (NCI-H460): > 100 µM (inactive)

CC1(C)CC(=O)C2=C(C1)NC(SCC(=O)O)=C(C#N)C2c1ccc(Br)cc1 (stereo unspecified)
GI50 (A549): > 100 µM (inactive)
GI50 (BT-549): > 100 µM (inactive)
GI50 (HT-29): > 100 µM (inactive)
GI50 (SK-MEL-28): > 100 µM (inactive)
GI50 (HL-60): > 100 µM (inactive)
GI50 (UACC-62): > 100 µM (inactive)
GI50 (NCI-H226): > 100 µM (inactive)
GI50 (ACHN): > 100 µM (inactive)
GI50 (M14): > 100 µM (inactive)
GI50 (COLO 205): > 100 µM (inactive)
GI50 (MCF7): > 100 µM (inactive)
GI50 (786-0): > 100 µM (inactive)
GI50 (HCT-15): > 100 µM
GI50 (TK-10): > 100 µM (inactive)
GI50 (U-251): > 100 µM (inactive)
GI50 (OVCAR-8): > 100 µM (inactive)
GI50 (OVCAR-4): > 100 µM (inactive)
GI50 (SF-295): > 100 µM (inactive)
GI50 (UACC-257): > 100 µM (inactive)
GI50 (OVCAR-3): > 100 µM (inactive)
GI50 (SK-OV-3): > 100 µM (inactive)
GI50 (HOP-62): > 100 µM (inactive)
GI50 (SK-MEL-5): > 100 µM (inactive)
GI50 (NCI-H522): 86.5 µM (inactive)
GI50 (NCI/ADR-RES): > 100 µM (inactive)
GI50 (Hs-578T): > 100 µM (inactive)
GI50 (HCT-116): > 100 µM (inactive)
GI50 (SK-MEL-2): > 100 µM (inactive)
GI50 (KM12): > 100 µM (inactive)
GI50 (SW-620): > 100 µM (inactive)
GI50 (MDA-MB-435): > 100 µM (inactive)
GI50 (DU-145): > 100 µM (inactive)
GI50 (SNB-75): > 100 µM (inactive)
GI50 (MDA-MB-231): > 100 µM (inactive)
GI50 (PC-3): > 100 µM (inactive)
GI50 (A498): > 100 µM (inactive)
GI50 (IGROV-1): > 100 µM (inactive)
GI50 (OVCAR-5): > 100 µM (inactive)
GI50 (HCC 2998): > 100 µM (inactive)
GI50 (NCI-H23): > 100 µM (inactive)
GI50 (HOP-92): 27.4 µM (inactive)
GI50 (SF-268): > 100 µM (inactive)
GI50 (UO-31): 4.56 µM (inactive)
GI50 (RXF 393): > 100 µM (inactive)
GI50 (MDA-N): > 100 µM (inactive)
GI50 (CAKI-1): > 100 µM (inactive)
GI50 (LOX IMVI): > 100 µM (inactive)
GI50 (SNB-19): > 100 µM (inactive)
GI50 (CCRF-CEM): > 100 µM (inactive)
GI50 (EKVX): > 100 µM (inactive)
GI50 (NCI-H460): > 100 µM (inactive)
